{"source": "ChEMBL document CHEMBL1201862", "about": "“PubChem BioAssay data set” (2004)", "experiment_in_all_cases": "inhibition of tumour cell growth, NCI panel, 48 h", "key": {"HT-29": {"system": "HT-29"}, "T47D": {"system": "T47D"}, "SF-539": {"system": "SF-539"}, "HCC 2998": {"system": "HCC 2998"}, "OVCAR-4": {"system": "OVCAR-4"}, "M19-MEL": {"system": "M19-MEL"}, "SW-620": {"system": "SW-620"}, "A549": {"system": "A549"}, "HCT-116": {"system": "HCT-116"}, "CAKI-1": {"system": "CAKI-1"}, "COLO 205": {"system": "COLO 205"}, "UACC-62": {"system": "UACC-62"}, "MDA-N": {"system": "MDA-N"}, "Malme-3M": {"system": "Malme-3M"}, "DMS-114": {"system": "DMS-114"}, "NCI-H226": {"system": "NCI-H226"}, "SK-MEL-28": {"system": "SK-MEL-28"}, "TK-10": {"system": "TK-10"}, "HCT-15": {"system": "HCT-15"}, "SK-OV-3": {"system": "SK-OV-3"}}, "note": "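Where inhibition never reached the appropriate level, the endpoint shown equals the highest concentration tested. Otherwise, values were interpolated linearly from a five-concentration, 48-hour dose response in 96-well plates. Here, GI50 denotes the concentration required for 50% inhibition of growth.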 Activity calls are given as the source filed them. Rule as the data show it: active = GI50 up to about 1.1 µM and inactive = higher."}
{"smiles": "Cc1cc2c(Br)cc(Br)c(O)c2nc1C(=O)c1ccccc1", "values": [{"measurement": "GI50", "setting": "HT-29", "result": "28.4 µM (inactive)"}, {"measurement": "GI50", "setting": "T47D", "result": "8.17 µM (inactive)"}, {"measurement": "GI50", "setting": "SF-539", "result": "19.1 µM (inactive)"}, {"measurement": "GI50", "setting": "HCC 2998", "result": "18.7 µM (inactive)"}, {"measurement": "GI50", "setting": "OVCAR-4", "result": "29.3 µM (inactive)"}, {"measurement": "GI50", "setting": "M19-MEL", "result": "17.7 µM (inactive)"}, {"measurement": "GI50", "setting": "SW-620", "result": "55.8 µM (inactive)"}, {"measurement": "GI50", "setting": "A549", "result": "14.4 µM (inactive)"}, {"measurement": "GI50", "setting": "HCT-116", "result": "12.4 µM (inactive)"}, {"measurement": "GI50", "setting": "CAKI-1", "result": "55.8 µM (inactive)"}, {"measurement": "GI50", "setting": "COLO 205", "result": "21.4 µM (inactive)"}, {"measurement": "GI50", "setting": "UACC-62", "result": "9.59 µM (inactive)"}, {"measurement": "GI50", "setting": "MDA-N", "result": "16.2 µM (inactive)"}, {"measurement": "GI50", "setting": "Malme-3M", "result": "33.2 µM (inactive)"}, {"measurement": "GI50", "setting": "DMS-114", "result": "31.6 µM (inactive)"}, {"measurement": "GI50", "setting": "NCI-H226", "result": "> 51.1 µM (inactive)"}, {"measurement": "GI50", "setting": "SK-MEL-28", "result": "> 62.7 µM (inactive)"}, {"measurement": "GI50", "setting": "TK-10", "result": "28.4 µM (inactive)"}, {"measurement": "GI50", "setting": "HCT-15", "result": 14, "unit": "µM"}]}
{"smiles": "COc1cc2cc(c1Cl)N(C)C(=O)C[C@H](OC(=O)[C@H](C)N(C)C(C)=O)[C@]1(C)O[C@H]1[C@H](C)[C@@H]1C[C@@](O)(NC(=O)O1)[C@H](OC)/C=C/C=C(/C)C2", "values": [{"measurement": "GI50", "setting": "HT-29", "result": "0.0164 µM (active)"}, {"measurement": "GI50", "setting": "T47D", "result": "> 100 µM (inactive)"}, {"measurement": "GI50", "setting": "SF-539", "result": "0.015 µM (active)"}, {"measurement": "GI50", "setting": "HCC 2998", "result": "0.0175 µM (active)"}, {"measurement": "GI50", "setting": "OVCAR-4", "result": "0.794 µM (active)"}, {"measurement": "GI50", "setting": "M19-MEL", "result": "0.0628 µM (active)"}, {"measurement": "GI50", "setting": "SW-620", "result": "0.0165 µM (active)"}, {"measurement": "GI50", "setting": "SK-OV-3", "result": "44.4 nM (active)"}, {"measurement": "GI50", "setting": "A549", "result": "0.0255 µM (active)"}, {"measurement": "GI50", "setting": "HCT-116", "result": "0.0143 µM (active)"}, {"measurement": "GI50", "setting": "CAKI-1", "result": "0.0531 µM (active)"}, {"measurement": "GI50", "setting": "COLO 205", "result": "0.02 µM (active)"}, {"measurement": "GI50", "setting": "UACC-62", "result": "0.0337 µM (active)"}, {"measurement": "GI50", "setting": "MDA-N", "result": "0.0131 µM (active)"}, {"measurement": "GI50", "setting": "Malme-3M", "result": "0.0351 µM (active)"}, {"measurement": "GI50", "setting": "DMS-114", "result": "0.0323 µM (active)"}, {"measurement": "GI50", "setting": "NCI-H226", "result": "0.0435 µM (active)"}, {"measurement": "GI50", "setting": "SK-MEL-28", "result": "0.0327 µM (active)"}, {"measurement": "GI50", "setting": "TK-10", "result": "0.238 µM (active)"}, {"measurement": "GI50", "setting": "HCT-15", "result": 0.0292, "unit": "µM"}]}
